# Source: PubChem BioAssay (NCI)
#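 1) Cells in 96-well plates. 2) Compound, 48 h, 5 concentrations. 3) Linear interpolation between surrounding doses. 4) Unreached endpoint = highest concentration. GI50 is the concentration that inhibits growth by half. At the TGI there is no net growth.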
# Columns and labels:
# Assay in all cases: NCI-60 cell line screen, 48 h
# [1] = test system: SF-268 CNS
# [2] = test system: MDA-MB-435
# [3] = test system: T-47D breast
# [4] = test system: OVCAR-3 ovarian
# [5] = test system: SR leukemia
# [6] = test system: HS 578T breast
# [7] = test system: UACC-257 melanoma
# [8] = test system: CAKI-1 renal
# [9] = test system: NCI/ADR-RES ovarian
# [10] = test system: MCF7 breast
# [11] = test system: HCT-116 colon
# [12] = test system: PC-3 prostate
# [13] = test system: HCT-15 colon
# [14] = test system: COLO 205 colon
# [15] = test system: HL-60(TB) leukemia
# [16] = test system: SK-MEL-28 melanoma
# [17] = test system: SNB-19 CNS
# [18] = test system: NCI-H23 lung
# [19] = test system: U251 CNS
# [20] = test system: TK-10 renal
# [21] = test system: SK-OV-3 ovarian
# [22] = test system: NCI-H522 lung
# [23] = test system: IGROV1 ovarian
# [24] = test system: SF-295 CNS
# [25] = test system: RPMI-8226 leukemia
# [26] = test system: 786-0 renal
# [27] = test system: OVCAR-4 ovarian
# [28] = test system: HT29 colon
# [29] = test system: SF-539 CNS
# [30] = test system: UO-31 renal
# [31] = test system: OVCAR-5 ovarian
# [32] = test system: A549 NSCLC
# [33] = test system: SN12C renal
# [34] = test system: MDA-MB-231 breast
# [35] = test system: HOP-62 NSCLC
# [36] = test system: LOX IMVI melanoma
# [37] = test system: M14 melanoma
# [38] = test system: UACC-62 melanoma
# [39] = test system: MOLT-4 leukemia
# [40] = test system: OVCAR-8 ovarian
# [41] = test system: CCRF-CEM leukemia
# [42] = test system: SNB-75 CNS
# [43] = test system: NCI-H460 lung
# [44] = test system: RXF 393 renal
# [45] = test system: KM12 colon
# [46] = test system: DU-145 prostate
# [47] = test system: K-562 leukemia
# [48] = test system: EKVX NSCLC
# [49] = test system: MALME-3M melanoma
# [50] = test system: NCI-H226 lung
# [51] = test system: A498 renal
# [52] = test system: SK-MEL-5 melanoma
# [53] = test system: BT-549 breast
# [54] = test system: HCC-2998 colon
# [55] = test system: SW-620 colon
# [56] = test system: ACHN renal
# [57] = test system: SK-MEL-2 melanoma
smiles,measurement,setting,value
O=C(O)c1c[nH]c2c(OCc3ccccc3)c3ccccc3c(O)c2c1=O,GI50,[1],22.4 µM
same,TGI,[1],64 µM
same,GI50,[2],2.18 µM
same,TGI,[2],4.08 µM
same,GI50,[3],21.5 µM
same,TGI,[3],73.8 µM
same,GI50,[4],1.86 µM
same,TGI,[4],11.8 µM
same,GI50,[5],28.3 µM
same,TGI,[5],59.6 µM
same,GI50,[6],33.2 µM
same,TGI,[6],70.1 µM
same,GI50,[7],11.8 µM
same,TGI,[7],24.2 µM
same,GI50,[8],17 µM
same,TGI,[8],35 µM
same,GI50,[9],16.5 µM
same,TGI,[9],47.7 µM
same,GI50,[10],14.9 µM
same,TGI,[10],34.3 µM
same,GI50,[11],15 µM
same,TGI,[11],28.2 µM
same,GI50,[12],15.1 µM
same,TGI,[12],45.9 µM
same,GI50,[13],16.6 µM
same,TGI,[13],31.9 µM
same,GI50,[14],17.6 µM
same,TGI,[14],34.7 µM
same,GI50,[15],19.7 µM
same,TGI,[15],46.1 µM
same,GI50,[16],19.3 µM
same,TGI,[16],36.9 µM
same,GI50,[17],17.7 µM
same,TGI,[17],42.9 µM
same,GI50,[18],3.22 µM
same,TGI,[18],14.3 µM
same,GI50,[19],2.43 µM
same,TGI,[19],5.19 µM
same,GI50,[20],22.8 µM
same,TGI,[20],43.4 µM
same,GI50,[21],23.7 µM
same,TGI,[21],85.6 µM
same,GI50,[22],25.7 µM
same,TGI,[22],> 100 µM
same,GI50,[23],18.7 µM
same,TGI,[23],> 100 µM
same,GI50,[24],13 µM
same,TGI,[24],27.8 µM
same,GI50,[25],9.04 µM
same,TGI,[25],35.8 µM
same,GI50,[26],21.7 µM
same,TGI,[26],43.9 µM
same,GI50,[27],43.6 µM
same,TGI,[27],> 100 µM
same,GI50,[28],21.7 µM
same,TGI,[28],58.8 µM
same,GI50,[29],19.7 µM
same,TGI,[29],36.4 µM
same,GI50,[30],20 µM
same,TGI,[30],> 100 µM
same,GI50,[31],20 µM
same,TGI,[31],34.2 µM
same,GI50,[32],16.4 µM
same,TGI,[32],30.7 µM
same,GI50,[33],11.3 µM
same,TGI,[33],23.3 µM
same,GI50,[34],20.2 µM
same,TGI,[34],> 100 µM
same,GI50,[35],17.5 µM
same,TGI,[35],31.4 µM
same,GI50,[36],3.24 µM
same,TGI,[36],11 µM
same,GI50,[37],12.6 µM
same,TGI,[37],25.2 µM
same,GI50,[38],3.97 µM
same,TGI,[38],13.3 µM
same,GI50,[39],15.6 µM
same,TGI,[39],36.9 µM
same,GI50,[40],11.8 µM
same,TGI,[40],40.9 µM
same,GI50,[41],10 µM
same,TGI,[41],34.7 µM
same,GI50,[42],19.5 µM
same,TGI,[42],43.1 µM
same,GI50,[43],14.9 µM
same,TGI,[43],38.7 µM
same,GI50,[44],23.4 µM
same,TGI,[44],45.6 µM
same,GI50,[45],12.6 µM
same,TGI,[45],29.4 µM
same,GI50,[46],21.1 µM
same,TGI,[46],37.2 µM
same,GI50,[47],3.2 µM
same,TGI,[47],> 100 µM
COc1cc(-n2cnc(-c3ccc(Cl)cc3)c2)cc(OC)c1OC,GI50,[1],22.9 µM
same,TGI,[1],63.2 µM
same,GI50,[48],> 100 µM
same,TGI,[48],> 100 µM
same,GI50,[2],38.4 µM
same,TGI,[2],> 100 µM
same,GI50,[4],> 100 µM
same,TGI,[4],> 100 µM
same,GI50,[49],16.1 µM
same,TGI,[49],32.9 µM
same,GI50,[5],25.4 µM
same,TGI,[5],62.2 µM
same,GI50,[6],49.2 µM
same,TGI,[6],> 100 µM
same,GI50,[7],18.3 µM
same,TGI,[7],34.1 µM
same,GI50,[8],24.9 µM
same,TGI,[8],> 100 µM
same,GI50,[9],16.9 µM
same,TGI,[9],45.1 µM
same,GI50,[10],17.9 µM
same,TGI,[10],34.7 µM
same,GI50,[11],> 100 µM
same,TGI,[11],> 100 µM
same,GI50,[12],12.7 µM
same,TGI,[12],31.7 µM
same,GI50,[50],> 100 µM
same,TGI,[50],> 100 µM
same,GI50,[13],16.8 µM
same,TGI,[13],36.3 µM
same,GI50,[51],14.2 µM
same,TGI,[51],31.6 µM
same,GI50,[14],15.4 µM
same,TGI,[14],29.8 µM
same,GI50,[15],15.3 µM
same,TGI,[15],35.4 µM
same,GI50,[16],15.5 µM
same,TGI,[16],29.7 µM
same,GI50,[17],> 100 µM
same,TGI,[17],> 100 µM
same,GI50,[18],17.9 µM
same,TGI,[18],35 µM
same,GI50,[19],22.2 µM
same,TGI,[19],57.8 µM
same,GI50,[52],67.8 µM
same,TGI,[52],> 100 µM
same,GI50,[20],15 µM
same,TGI,[20],37.4 µM
same,GI50,[21],21.2 µM
same,TGI,[21],52.2 µM
same,GI50,[22],15.6 µM
same,TGI,[22],34.3 µM
same,GI50,[23],30.7 µM
same,TGI,[23],> 100 µM
same,GI50,[24],17.6 µM
same,TGI,[24],38.1 µM
same,GI50,[25],14.7 µM
same,TGI,[25],32.2 µM
same,GI50,[26],> 100 µM
same,TGI,[26],> 100 µM
same,GI50,[27],15.8 µM
same,TGI,[27],46.6 µM
same,GI50,[28],16.1 µM
same,TGI,[28],32.8 µM
same,GI50,[29],17.1 µM
same,TGI,[29],34.4 µM
same,GI50,[53],16.7 µM
same,TGI,[53],31.3 µM
same,GI50,[30],15.6 µM
same,TGI,[30],40.5 µM
same,GI50,[54],16.8 µM
same,TGI,[54],30.4 µM
same,GI50,[31],18.6 µM
same,TGI,[31],45.4 µM
same,GI50,[32],> 100 µM
same,TGI,[32],> 100 µM
same,GI50,[33],> 100 µM
same,TGI,[33],> 100 µM
same,GI50,[34],85.7 µM
same,TGI,[34],> 100 µM
same,GI50,[35],24.1 µM
same,TGI,[35],71.5 µM
same,GI50,[36],18 µM
same,TGI,[36],34.3 µM
same,GI50,[37],73 µM
same,TGI,[37],> 100 µM
same,GI50,[38],62.4 µM
same,TGI,[38],> 100 µM
same,GI50,[39],19.2 µM
same,TGI,[39],39.9 µM
same,GI50,[40],> 100 µM
same,TGI,[40],> 100 µM
same,GI50,[41],21.4 µM
same,TGI,[41],44.8 µM
same,GI50,[42],16.5 µM
same,TGI,[42],34.8 µM
same,GI50,[43],18.6 µM
same,TGI,[43],36.8 µM
same,GI50,[55],> 100 µM
same,TGI,[55],> 100 µM
same,GI50,[45],> 100 µM
same,TGI,[45],> 100 µM
same,GI50,[56],19.8 µM
same,TGI,[56],57.3 µM
same,GI50,[57],18.3 µM
same,TGI,[57],40.1 µM
same,GI50,[46],> 100 µM
same,TGI,[46],> 100 µM
same,GI50,[47],7.33 µM
same,TGI,[47],29.5 µM
